Measurements published in ChEMBL document CHEMBL1201862, “PubChem BioAssay data set” (2004).
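The compound was tested at five concentrations on cells cultured in 96-well plates, with a 48-hour exposure period. GI50 marks 50% less growth.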 Active and inactive are the calls of the source. Rule as the data show it: active = GI50 up to about 1.1 µM and inactive = higher. Where a SMILES comes first, the peptide text is derived from it. [ ]: non-standard residue; d: D form. The star is where a group is joined. Phe(4-NO2) = N[CH](Cc1ccc([N+](=O)[O-])cc1)C(=O)O; Cbz = O=C(OCc1ccccc1)*

Columns and labels:
Assay in all cases: NCI-60 cell line screen, 48 h
786-0 = tested on: 786-0
BT-549 = tested on: BT-549
CAKI-1 = tested on: CAKI-1
DU-145 = tested on: DU-145
HCC 2998 = tested on: HCC 2998
HCT-15 = tested on: HCT-15
K562 = tested on: K562
MCF7 = tested on: MCF7
MDA-MB-231 = tested on: MDA-MB-231
NCI/ADR-RES = tested on: NCI/ADR-RES
OVCAR-3 = tested on: OVCAR-3
OVCAR-5 = tested on: OVCAR-5
PC-3 = tested on: PC-3
SF-268 = tested on: SF-268
SF-539 = tested on: SF-539
SNB-75 = tested on: SNB-75
SW-620 = tested on: SW-620
T47D = tested on: T47D
UO-31 = tested on: UO-31
HOP-92 = tested on: HOP-92

Q: For N#Cc1nc2cc(Cl)ccc2nc1N1CCN(c2ccc([N+](=O)[O-])cc2)CC1, which GI50 (786-0) is on record?
A: > 100 µM (inactive)

Q: And the GI50 (BT-549)?
A: > 100 µM (inactive)

Q: And the GI50 (CAKI-1)?
A: > 100 µM (inactive)

Q: What about the GI50 (DU-145) of the same compound?
A: > 100 µM (inactive)

Q: What about the GI50 (HCC 2998) of the same compound?
A: 18.9 µM (inactive)

Q: And the GI50 (HCT-15)?
A: > 100 µM

Q: And the GI50 (K562)?
A: > 100 µM (inactive)

Q: And the GI50 (MCF7)?
A: > 100 µM (inactive)

Q: What about the GI50 (MDA-MB-231) of the same compound?
A: > 100 µM (inactive)

Q: And the GI50 (NCI/ADR-RES)?
A: > 100 µM (inactive)

Q: And the GI50 (OVCAR-3)?
A: > 100 µM (inactive)

Q: What about the GI50 (OVCAR-5) of the same compound?
A: > 100 µM (inactive)

Q: What about the GI50 (PC-3) of the same compound?
A: > 100 µM (inactive)

Q: What about the GI50 (SF-268) of the same compound?
A: > 100 µM (inactive)

Q: What about the GI50 (SF-539) of the same compound?
A: > 100 µM (inactive)

Q: What about the GI50 (SNB-75) of the same compound?
A: > 100 µM (inactive)

Q: And the GI50 (SW-620)?
A: > 100 µM (inactive)

Q: What about the GI50 (T47D) of the same compound?
A: > 100 µM (inactive)

Q: What about the GI50 (UO-31) of the same compound?
A: > 100 µM (inactive)

Q: With COc1cc(/C=N/n2c(C)n[nH]c2=O)cc(OC)c1OC as the compound, how does the GI50 (786-0) read?
A: > 100 µM (inactive)

Q: What about the GI50 (BT-549) of the same compound?
A: 78 µM (inactive)

Q: And the GI50 (CAKI-1)?
A: > 100 µM (inactive)

Q: And the GI50 (HCC 2998)?
A: > 100 µM (inactive)

Q: And the GI50 (HCT-15)?
A: > 100 µM

Q: And the GI50 (K562)?
A: > 100 µM (inactive)

Q: What about the GI50 (MCF7) of the same compound?
A: > 100 µM (inactive)

Q: And the GI50 (MDA-MB-231)?
A: 57.5 µM (inactive)

Q: What about the GI50 (NCI/ADR-RES) of the same compound?
A: > 100 µM (inactive)

Q: And the GI50 (OVCAR-3)?
A: 51.4 µM (inactive)

Q: And the GI50 (OVCAR-5)?
A: 80.5 µM (inactive)

Q: And the GI50 (PC-3)?
A: > 100 µM (inactive)

Q: What about the GI50 (SF-268) of the same compound?
A: > 100 µM (inactive)

Q: What about the GI50 (SF-539) of the same compound?
A: > 100 µM (inactive)

Q: And the GI50 (SNB-75)?
A: > 100 µM (inactive)

Q: What about the GI50 (SW-620) of the same compound?
A: > 100 µM (inactive)

Q: And the GI50 (T47D)?
A: 71.3 µM (inactive)

Q: What about the GI50 (UO-31) of the same compound?
A: 84.3 µM (inactive)

Q: Which results are given for CNC(=O)OCc1nc(N=[N+]=[N-])n(C)c1COC(=O)NC?
A: GI50 (786-0): > 10 µM (inactive); GI50 (BT-549): > 10 µM (inactive); GI50 (CAKI-1): 20.7 µM (inactive); GI50 (DU-145): 49.8 µM (inactive); GI50 (HCC 2998): 38.4 µM (inactive); GI50 (HCT-15): 60.4 µM; GI50 (HOP-92): 25.3 µM (inactive); GI50 (K562): 46.5 µM (inactive); GI50 (MCF7): 38 µM (inactive); GI50 (MDA-MB-231): 95.5 µM (inactive); GI50 (NCI/ADR-RES): 69.8 µM (inactive); GI50 (OVCAR-3): 39.2 µM (inactive); GI50 (OVCAR-5): > 100 µM (inactive); GI50 (PC-3): 96.2 µM (inactive); GI50 (SF-268): 32.1 µM (inactive); GI50 (SF-539): 54.5 µM (inactive); GI50 (SNB-75): 49 µM (inactive); GI50 (SW-620): 66.1 µM (inactive); GI50 (UO-31): > 10 µM (inactive)

Q: How did the GI50 (786-0) turn out when CCOC(=O)CCC(NC(=O)OCc1ccccc1)C(=O)NC(CCC(=O)OCC)C(=O)NC(Cc1ccc([N+](=O)[O-])cc1)C(=O)NC(CCC(=O)OCC)C(=O)NC(CCC(=O)OCC)C(=O)OCC (stereo unspecified) (Cbz-E(OEt)E(OEt)[Phe(4-NO2)]E(OEt)E(OEt)-OEt; configuration not given here) was run?
A: > 100 µM (inactive)

Q: And the GI50 (BT-549)?
A: > 100 µM (inactive)

Q: What about the GI50 (CAKI-1) of the same compound?
A: > 100 µM (inactive)

Q: And the GI50 (DU-145)?
A: > 100 µM (inactive)

Q: And the GI50 (HCT-15)?
A: > 100 µM

Q: What about the GI50 (MCF7) of the same compound?
A: > 100 µM (inactive)

Q: And the GI50 (MDA-MB-231)?
A: > 100 µM (inactive)

Q: And the GI50 (NCI/ADR-RES)?
A: > 100 µM (inactive)

Q: What about the GI50 (OVCAR-5) of the same compound?
A: > 100 µM (inactive)

Q: What about the GI50 (PC-3) of the same compound?
A: > 100 µM (inactive)

Q: And the GI50 (SNB-75)?
A: > 100 µM (inactive)

Q: What about the GI50 (SW-620) of the same compound?
A: > 100 µM (inactive)

Q: What about the GI50 (T47D) of the same compound?
A: > 100 µM (inactive)

Q: And the GI50 (UO-31)?
A: > 100 µM (inactive)

Q: Which results are given for Cc1nc2ccccc2n1Cc1nnc(N)o1?
A: GI50 (786-0): > 100 µM (inactive); GI50 (BT-549): > 100 µM (inactive); GI50 (DU-145): > 100 µM (inactive); GI50 (HCC 2998): > 100 µM (inactive); GI50 (HCT-15): > 100 µM; GI50 (HOP-92): > 100 µM (inactive); GI50 (K562): > 100 µM (inactive); GI50 (MCF7): > 100 µM (inactive); GI50 (MDA-MB-231): > 100 µM (inactive); GI50 (NCI/ADR-RES): > 100 µM (inactive); GI50 (OVCAR-3): > 100 µM (inactive); GI50 (OVCAR-5): > 100 µM (inactive); GI50 (PC-3): > 100 µM (inactive); GI50 (SF-268): > 100 µM (inactive); GI50 (SF-539): > 100 µM (inactive); GI50 (SNB-75): > 100 µM (inactive); GI50 (SW-620): > 100 µM (inactive); GI50 (T47D): > 100 µM (inactive); GI50 (UO-31): > 100 µM (inactive)

Q: O=C1CCCCC/C1=C\c1cccc(F)c1 was tested. Which GI50 (786-0) did it give?
A: > 100 µM (inactive)

Q: And the GI50 (BT-549)?
A: 51.9 µM (inactive)

Q: What about the GI50 (CAKI-1) of the same compound?
A: 65.9 µM (inactive)

Q: What about the GI50 (DU-145) of the same compound?
A: > 100 µM (inactive)

Q: And the GI50 (HCC 2998)?
A: 59.8 µM (inactive)

Q: What about the GI50 (HCT-15) of the same compound?
A: 39.8 µM

Q: And the GI50 (K562)?
A: 49.5 µM (inactive)

Q: And the GI50 (MCF7)?
A: 64.9 µM (inactive)

Q: What about the GI50 (MDA-MB-231) of the same compound?
A: > 100 µM (inactive)

Q: And the GI50 (NCI/ADR-RES)?
A: > 100 µM (inactive)

Q: What about the GI50 (OVCAR-3) of the same compound?
A: > 100 µM (inactive)

Q: And the GI50 (OVCAR-5)?
A: > 100 µM (inactive)

Q: And the GI50 (PC-3)?
A: > 100 µM (inactive)

Q: And the GI50 (SF-268)?
A: 82.4 µM (inactive)

Q: And the GI50 (SF-539)?
A: > 100 µM (inactive)

Q: And the GI50 (SNB-75)?
A: > 100 µM (inactive)

Q: What about the GI50 (SW-620) of the same compound?
A: 83.8 µM (inactive)

Q: And the GI50 (T47D)?
A: > 100 µM (inactive)

Q: And the GI50 (UO-31)?
A: 57.7 µM (inactive)

Q: What does the source list for CC(CCC(=O)O)(c1ccc(O)cc1)c1ccc(O)cc1?
A: GI50 (786-0): > 100 µM (inactive); GI50 (BT-549): > 100 µM (inactive); GI50 (CAKI-1): > 100 µM (inactive); GI50 (DU-145): > 100 µM (inactive); GI50 (HCT-15): > 100 µM; GI50 (HOP-92): > 100 µM (inactive); GI50 (K562): > 100 µM (inactive); GI50 (MDA-MB-231): > 100 µM (inactive); GI50 (NCI/ADR-RES): > 100 µM (inactive); GI50 (OVCAR-3): > 100 µM (inactive); GI50 (OVCAR-5): > 100 µM (inactive); GI50 (PC-3): > 100 µM (inactive); GI50 (SF-268): > 100 µM (inactive); GI50 (SW-620): > 100 µM (inactive); GI50 (T47D): > 100 µM (inactive); GI50 (UO-31): > 100 µM (inactive)

Q: Which results are given for Cc1cc(S(=O)(=O)/N=C2\NCCN2Cc2ccccc2)c(S)cc1Cl?
A: GI50 (786-0): > 100 µM (inactive); GI50 (BT-549): > 100 µM (inactive); GI50 (CAKI-1): > 100 µM (inactive); GI50 (DU-145): > 100 µM (inactive); GI50 (HCC 2998): > 100 µM (inactive); GI50 (HCT-15): > 100 µM; GI50 (K562): > 100 µM (inactive); GI50 (MCF7): > 100 µM (inactive); GI50 (MDA-MB-231): > 100 µM (inactive); GI50 (NCI/ADR-RES): > 100 µM (inactive); GI50 (OVCAR-3): > 100 µM (inactive); GI50 (OVCAR-5): > 100 µM (inactive); GI50 (PC-3): > 100 µM (inactive); GI50 (SF-268): 88.3 µM (inactive); GI50 (SF-539): > 100 µM (inactive); GI50 (SNB-75): > 100 µM (inactive); GI50 (SW-620): > 100 µM (inactive)
